Here are results for nine compounds from ChEMBL document CHEMBL1153245, “A profile of the in vitro anti-tumor activity of imidazolium-based ionic liquids” (2010).

Format in all cases: functional
One assay deals with SK-MEL-5. Put plainly: Anticancer activity against human SK-MEL-5 cells assessed cell growth at 10 uM after 48 hrs by sulforhodamine B assay relative to control. Background: In SRB staining, fixed cells bind dye roughly in proportion to their protein.
A further assay has as its system OVCAR-5. Put plainly: Anticancer activity against human OVCAR5 cells assessed cell growth at 10 uM after 48 hrs by sulforhodamine B assay relative to control.
The subject of another assay is MDA-MB-231. Put plainly: Anticancer activity against human MDA-MB-231 cells assessed cell growth at 10 uM after 48 hrs by sulforhodamine B assay relative to control.
The test system of the next assay is MCF7. In words: Anticancer activity against human MCF7 cells assessed cell growth at 10 uM after 48 hrs by sulforhodamine B assay relative to control.
Another assay concerns RXF 393. Put plainly: Anticancer activity against human RXF393 cells assessed cell growth at 10 uM after 48 hrs by sulforhodamine B assay relative to control.
The next assay deals with SW-620. In words: Anticancer activity against human SW620 cells assessed cell growth at 10 uM after 48 hrs by sulforhodamine B assay relative to control.
A further assay relates to NCI-H23. Put plainly: Anticancer activity against human NCI-H23 cells assessed cell growth at 10 uM after 48 hrs by sulforhodamine B assay relative to control.
The next assay has as its system NCI-H322M. Put plainly: Anticancer activity against human NCI-H322M cells assessed cell growth at 10 uM after 48 hrs by sulforhodamine B assay relative to control.
A further assay relates to Malme-3M. Put plainly: Anticancer activity against human MALME-3M cells assessed cell growth at 10 uM after 48 hrs by sulforhodamine B assay relative to control.
A further assay concerns SF-539. Put plainly: Anticancer activity against human SF539 cells assessed cell growth at 10 uM after 48 hrs by sulforhodamine B assay relative to control.
For a further assay, the system named is SN12C. In words: Anticancer activity against human SN12C cells assessed cell growth at 10 uM after 48 hrs by sulforhodamine B assay relative to control.
The test system of the next assay is SNB-75. In words: Anticancer activity against human SNB75 cells assessed cell growth at 10 uM after 48 hrs by sulforhodamine B assay relative to control.
A further assay has as its system MOLT-4. In words: Anticancer activity against human MOLT4 cells assessed cell growth at 10 uM after 48 hrs by sulforhodamine B assay relative to control.
The test system of a further assay is UACC-62. In words: Anticancer activity against human UACC62 cells assessed cell growth at 10 uM after 48 hrs by sulforhodamine B assay relative to control.

Turning to `COCC[n+]1ccn(C)c1.O=S(=O)([N-]S(=O)(=O)C(F)(F)F)C(F)(F)F`, the Activity with SK-MEL-5 was found to be 100.51%; with OVCAR-5, 112.96%; in the assay on MDA-MB-231, 120.14%; in the assay with MCF7, 101.56%; in the assay with RXF 393 it was 103.9%; in the assay with SW-620 it was 99.89%. Further, the Activity was 96.12% in the assay on NCI-H23; 102.08% with NCI-H322M; 125.61% with Malme-3M; 94.09% in the assay with SF-539; 96.96% in the assay on SN12C; 80.79% with SNB-75. Also, the Activity in the assay on MOLT-4 is recorded as 105.9%; with UACC-62, 105.79%.

As for `CCCCCC[n+]1ccn(C)c1.FC(F)(F)C(F)(F)[P-](F)(F)(F)(C(F)(F)C(F)(F)F)C(F)(F)C(F)(F)F`, the Activity is 51.37% with SK-MEL-5; 105.17% in the assay on OVCAR-5; 73.1% in the assay with MDA-MB-231; 62.49% with MCF7; 92.19% with RXF 393; 80.17% with SW-620. The Activity in the assay with NCI-H23 is recorded as 45.51%; in the assay with NCI-H322M it was 77.95%; in the assay with Malme-3M it was 102.23%; with SF-539, 75.55%; in the assay on SN12C it was 87.26%; in the assay on SNB-75, 88.07%. Further, the Activity was determined as 81.53% in the assay on MOLT-4 and 68.28% in the assay with UACC-62.

For `CCCCCCCC[n+]1ccn(C)c1.F[B-](F)(F)F`, the Activity in the assay on SK-MEL-5 is 81.77%; in the assay on OVCAR-5, 92.12%; in the assay with MDA-MB-231 it was 78.93%; with MCF7, 76.87%; in the assay on RXF 393, 104.98%; in the assay with SW-620 it was 80.56%. The Activity in the assay with NCI-H23 was 59.28%; with NCI-H322M it was 101.83%; in the assay with Malme-3M, 80.13%; in the assay on SF-539, 74.98%; in the assay on SN12C, 97.45%; in the assay on SNB-75, 84.84%. Besides, the Activity with MOLT-4 was 92.94%; with UACC-62 it was 90.08%.

Take `Cn1cc[n+](CCO)c1.O=S(=O)([N-]S(=O)(=O)C(F)(F)F)C(F)(F)F`: the Activity is 100.98% in the assay with SK-MEL-5; 104.59% in the assay on MDA-MB-231; 105.11% in the assay on MCF7; 95.99% with RXF 393; 103.41% with SW-620; 93.17% in the assay on NCI-H23. For the same compound, the Activity worked out at 94.56% with NCI-H322M; 121.81% in the assay on Malme-3M; 99.95% in the assay with SF-539; 96.7% in the assay with SN12C; 79.94% in the assay with SNB-75; 49.74% with MOLT-4. The same compound came in with an Activity with UACC-62 of 100.11%.

`CCCCCCCC[n+]1ccn(C)c1.F[P-](F)(F)(F)(F)F`: the Activity in the assay on SK-MEL-5 came out at 76.82%; in the assay with OVCAR-5, 96.06%; in the assay on MDA-MB-231 it was 65.53%; in the assay with MCF7, 69.15%; in the assay on RXF 393, 83.22%; in the assay on SW-620 it was 73.41%. Besides, the Activity with NCI-H23 is 51.9%; with NCI-H322M it was 89.47%; with Malme-3M, 62.25%; in the assay with SF-539, 67.02%; in the assay with SN12C, 86.03%; with SNB-75 it was 70.71%. Further, the Activity with MOLT-4 was 86.46%; with UACC-62, 90.01%.

As for `CCCCCCCC[n+]1ccn(C)c1.[Cl-]`, the Activity in the assay on SK-MEL-5 stood at 86.81%; in the assay on OVCAR-5 it was 101.85%; in the assay on MDA-MB-231, 74.81%; with MCF7, 79.81%; with RXF 393, 78.03%; in the assay with SW-620 it was 89.37%. Besides, the Activity with NCI-H23 is reported as 62.26%; in the assay with NCI-H322M, 95.53%; with Malme-3M, 80.97%; in the assay on SF-539 it was 71.01%; in the assay with SN12C it was 93.85%; in the assay on SNB-75, 83.9%. Besides, the Activity is given as 81.09% with MOLT-4 and 81.12% in the assay with UACC-62.

Take `CCCCCC[n+]1ccn(C)c1.O=S(=O)([N-]S(=O)(=O)C(F)(F)F)C(F)(F)F`: the Activity with SK-MEL-5 was 78.78%; in the assay on OVCAR-5 it was 105.87%; in the assay on MDA-MB-231, 86.26%; in the assay with MCF7 it was 106.75%; in the assay on RXF 393 it was 103.51%; in the assay with SW-620, 99.75%. Also, the Activity in the assay with NCI-H23 is listed as 89.09%; with NCI-H322M, 113.78%; in the assay with Malme-3M, 102.07%; with SF-539, 75.4%; in the assay with SN12C it was 90.25%; with SNB-75 it was 94.84%. The Activity was 100.94% in the assay with MOLT-4 and 92.58% with UACC-62.

Regarding `CCCCCCCCOS(=O)(=O)[O-].CCCCCCCC[n+]1ccn(C)c1`, the Activity was 74.87% with SK-MEL-5; 98.17% in the assay with OVCAR-5; 66.28% in the assay on MDA-MB-231; 75.57% in the assay with MCF7; 84% in the assay on RXF 393; 86.25% in the assay with SW-620. For the same compound, the Activity with NCI-H23 was 56.59%; in the assay with NCI-H322M it was 89.12%; in the assay with Malme-3M, 80.15%; in the assay with SF-539 it was 65.31%; with SN12C it was 92.64%; with SNB-75, 84.66%. In addition, the Activity stood at 86.99% in the assay with MOLT-4 and 85.18% in the assay with UACC-62.

`Cn1cc[n+](Cc2ccccc2)c1.F[P-](F)(F)(F)(F)F`: the Activity in the assay on SK-MEL-5 came to 104.4%; in the assay with OVCAR-5, 101.34%; with MDA-MB-231, 113.82%; in the assay with MCF7 it was 102.21%; in the assay on RXF 393 it was 102.92%; with SW-620, 118.52%. Besides, the Activity in the assay on NCI-H23 is reported as 70.66%; in the assay with NCI-H322M, 116.31%; with Malme-3M, 118.68%; with SF-539 it was 106.41%; in the assay with SN12C it was 107.17%; in the assay with SNB-75, 83.18%. The Activity is 81.59% in the assay on MOLT-4 and 101.92% with UACC-62.
